Measured values taken from US20260124201A1, “CYCLOPENTANE COMPOUND” (Kissei Pharmaceutical Co., Ltd., priority 2022, published 2026).

Molecular target: T1, human OX2R (Homo sapiens, UniProt O43614)
T1 construct: expressed in transfected cells
T1 sequence (O43614 1-444): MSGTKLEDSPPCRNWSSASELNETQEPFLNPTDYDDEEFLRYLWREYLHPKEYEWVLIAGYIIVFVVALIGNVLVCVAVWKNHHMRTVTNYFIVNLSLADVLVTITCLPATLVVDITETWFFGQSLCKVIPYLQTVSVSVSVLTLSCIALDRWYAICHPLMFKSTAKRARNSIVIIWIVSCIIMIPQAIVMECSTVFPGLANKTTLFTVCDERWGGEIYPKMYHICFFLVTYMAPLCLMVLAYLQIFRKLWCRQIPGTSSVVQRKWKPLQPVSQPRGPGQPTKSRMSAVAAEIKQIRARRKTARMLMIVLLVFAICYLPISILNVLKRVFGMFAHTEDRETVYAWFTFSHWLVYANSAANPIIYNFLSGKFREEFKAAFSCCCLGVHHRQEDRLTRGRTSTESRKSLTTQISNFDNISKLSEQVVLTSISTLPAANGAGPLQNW
Assay: Measurement of OX2R agonist activity (intracellular calcium concentration change, Fluo4-AM, FDSS 7000)
Type: cell-based
Details: compound concentration 10 μM; human OX2R-expressing CHO-K1 cells; 1 μM human orexin A peptide = 100%, medium alone = 0%
Source text: The following abbreviations in the description, the figures and the tables have the following meanings, respectively. • AZADOL (registered trademark): 2-Hydroxy-2-azaadamantane • Boc2O: di-tert-butyl dicarbonate • DIPEA: N,N-diisopropylethylamine • DCM: dichloromethane • DMAP: 4-dimethylaminopyridine • DMF: N,N-dimethylformamide • DMSO: dimethylsulfoxide • Deoxo-Fluor: bis(2-methoxyethyl)-aminosulfur trifluoride • HATU: O-(7-azabenzotriazol-1-yl)-N,N,N′,N′-tetramethyluronium hexafluorophosphate • LDA: lithium diisopropylamide • MeCN: acetonitrile • Me4tBuXPhos: 2-di-tert-butylphosphino-3,4,5,6-tetramethyl-2′,4′,6′-triisopropyl-1,1′-biphenyl • MTBE: methyl tert-butyl ether • NMP: N-methylpyrrolidone • PdCl2(PPh3)2: dichlorobis(triphenylphosphine)palladium(II) • Pd(dba)2: bis(dibenzylideneacetone)palladium(0) • Pd2(dba)3: tris(dibenzylideneacetone)dipalladium(0) • Pd(dppf)Cl2: [1,1′-bis(diphenylphosphino)ferrocene]dichloropalladium(II) • Pd(PPh3)4: tetrakis(triphenylphosphine)palladium(0) • TEA: triethylamine • TFA: trifluoroacetic acid • THF: tetrahydrofuran • Xphos: 2-dicyclohexylphosphino-2′,4′,6′-triisopropylbiphenyl • Xphos Pd G3: (2-dicyclohexylphosphino-2′,4′,6′-triisopropyl-1,1′-biphenyl)[2-(2′-amino-1,1′-biphenyl)]palladium(II) methanesulfonic acid salt • 10% Pd/C: Palladium 10% on Carbon (wetted with ca. 55% water) • APS: aminopropylated silica gel • ODS: octadecyl-silylated silica gel • Method A: column chromatography with an aminopropylated silica gel column followed by a silica gel column • Chiral preparative column chromatography: chiral preparative column chromatography using YMC CHIRALART Cellulose-SB • Ref. No.: Reference Example Number • Str.: structural formula • Ex. No.: Example Number • Phys. data: physical data • ^1H-NMR: hydrogen nuclear magnetic resonance spectrum • CDCl3: chloroform-d1 • MS: mass spectrometry (The measured values in the tables were measured by electrospray ionization or multiionization using electrospray ionization-atmospheric pressure chemical ionization.) • Act.: activation rate of test substance at a compound concentration of 10 μM calculated by setting the fluorescence intensity obtained when human orexin A peptide was added at a concentration of 1 μM as 100% and the fluorescence intensity obtained when the medium alone was added as 0% • CHO: Chinese hamster ovary • HEPES: 2-[4-(2-hydroxyethyl)-1-piperazinyl]ethanesulfonic acid
A human OX2R sequence (Accession No. NM_001526.4) was inserted into the multiple cloning site of pcDNA3.4 (Life Technologies Japan Ltd.) to clone a plasmid vector for human OX2R expression. The plasmid was introduced into CHO-K1 cells using Lipofectamine 2000 (Life Technologies Japan Ltd.). Two days later, the transgenic CHO-K1 cells were passaged into 175T flasks and cultured selectively for 6 days. As a selection medium, Ham's F-12 Nutrient Mix (Life Technologies Japan Ltd.), containing Geneticin (registered trademark) (Life Technologies Japan Ltd.) at a final concentration of 1 mg/mL and inactivated fetal bovine serum (Biowest) at a final concentration of 10%, was used. After the selective culture, the cells were reseeded into 96-well plates, and a human OX2R-expressing cell line was obtained by limiting dilution.
The agonist effects of test substances on human OX2R were evaluated using the intracellular calcium concentration-change upon stimulation as an indicator. A day before measurement of the intracellular calcium concentrations, human OX2R-expressing cells suspended in a medium were seeded into 384-well plates at 5×10^3 cells/50 μL/well and cultured overnight in an incubator set at 37° C. and 5% CO2. After incubation, the medium was removed and replaced with 20 μL of a loading buffer. […]

Structure (SMILES)	Act. (%): activation rate of test substance
CON(C)C(=O)[C@@]1(Cc2cccc(-c3ncc(F)cn3)c2)C[C@H](F)[C@H](NS(C)(=O)=O)C1 [Example 57, (1R,3S,4R)-3-Fluoro-1-(3-(5-fluoropyrimidin-2-yl)benzyl)-N-methoxy-N-methyl-4-(methylsulfonamido)cyclopentane-1-carboxamide]	92%
CCS(=O)(=O)N[C@@H]1C[C@@](Cc2ccc(Cl)c(-c3ncc(F)cn3)c2)(C(=O)N(C)OC)C[C@@H]1F [Example 63, (1R,3R,4S)-1-(4-Chloro-3-(5-fluoropyrimidin-2-yl)benzyl)-3-(ethylsulfonamido)-4-fluoro-N-methoxy-N-methylcyclopentane-1-carboxamide]	96%
CON(C)C(=O)[C@@]1(Cc2cccc(-c3ncc(F)cn3)c2)C[C@H](F)[C@H](NS(=O)(=O)C(C)C)C1 [Example 58, (1R,3S,4R)-3-Fluoro-1-(3-(5-fluoropyrimidin-2-yl)benzyl)-N-methoxy-N-methyl-4-((1-methylethyl)sulfonamido)cyclopentane-1-carboxamide]	95%
CON(C)C(=O)[C@]1(Cc2cc(-c3ncc(F)cn3)ccc2F)C[C@@H](NS(C)(=O)=O)C(F)(F)C1 (relative stereo) [Example 43]	93%
C[C@H]1CCCN1C(=O)[C@@]1(Cc2cccc(-c3ccccc3)c2)CC[C@H](NS(C)(=O)=O)C1 (relative stereo) [Example 8]	75%
CS(=O)(=O)N[C@H]1CC[C@](Cc2cccc(-c3ccccc3)c2)(C(N)=O)C1 (relative stereo) [Example 72, (1R*,3S*)-1-([1,1′-Biphenyl]-3-ylmethyl)-3-(methylsulfonamido)cyclopentane-1-carboxamide]	23%
CON(C)C(=O)[C@@]1(Cc2cccc(-c3ncc(Cl)cn3)c2)CC[C@H](NS(C)(=O)=O)C1 (relative stereo) [Example 15, (1R*,3S*)-1-(3-(5-Chloropyrimidin-2-yl)benzyl)-N-methoxy-N-methyl-3-(methylsulfonamido)cyclopentane-1-carboxamide]	86%
CS(=O)(=O)N[C@H]1CC[C@](Cc2cccc(-c3ccccc3)c2)(C(=O)NCC(F)(F)F)C1 (relative stereo) [Example 74, (1R*,3S*)-1-([1,1′-Biphenyl]-3-ylmethyl)-3-(methylsulfonamido)-N-(2,2,2-trifluoroethyl)cyclopentane-1-carboxamide]	33%
CON(C)C(=O)[C@@]1(Cc2ccc(F)c(-c3ncc(F)cn3)c2)C[C@@H](F)[C@H](NS(C)(=O)=O)C1 [Example 64, (1R,3R,4R)-3-Fluoro-1-(4-fluoro-3-(5-fluoropyrimidin-2-yl)benzyl)-N-methoxy-N-methyl-4-(methylsulfonamido)cyclopentane-1-carboxamide]	101%
CON(C)C(=O)[C@@]1(Cc2ccc(F)c(-c3ccc(F)cc3)c2)CC[C@H](NS(C)(=O)=O)C1 (relative stereo) [Example 4]	82%
CO[C@@H]1C[C@](Cc2cccc(-c3ncc(F)cn3)c2)(C(=O)N(C)OC)C[C@H]1NS(C)(=O)=O [Example 68]	91%
CN(O)C(=O)[C@@]1(Cc2cccc(-c3ncccn3)c2)CC[C@H](NS(C)(=O)=O)C1 (relative stereo) [Example 30, (1R*,3S*)—N-Hydroxy-N-methyl-3-(methylsulfonamido)-1-(3-(pyrimidin-2-yl)benzyl)cyclopentane-1-carboxamide]	48%
CON(C)C(=O)[C@@]1(Cc2ccc(O)c(-c3ncc(F)cn3)c2)C[C@H](F)[C@H](NS(C)(=O)=O)C1 (relative stereo) [Example 39, (1R*,3S*,4R*)-3-Fluoro-1-(3-(5-fluoropyrimidin-2-yl)-4-hydroxybenzyl)-N-methoxy-N-methyl-4-(methylsulfonamido)cyclopentane-1-carboxamide]	91%
CON(C)C(=O)[C@@]1(Cc2cccc(-c3ncc(F)cn3)c2)C[C@H](F)[C@H](NS(=O)(=O)N(C)C)C1 (relative stereo) [Example 35, (1R*,3R*,4S*)-3-((N,N-Dimethylsulfamoyl)amino)-4-fluoro-1-(3-(5-fluoropyrimidin-2-yl)benzyl)-N-methoxy-N-methylcyclopentane-1-carboxamide]	92%
CS(=O)(=O)N[C@H]1CC[C@](Cc2cccc(-c3ccccc3)c2)(C(=O)NCCO)C1 (relative stereo) [Example 73, (1R*,3S*)-1-([1,1′-Biphenyl]-3-ylmethyl)-N-(2-hydroxyethyl)-3-(methylsulfonamido)cyclopentane-1-carboxamide]	36%
COc1ccc(C[C@]2(C(=O)N(C)OC)CC[C@H](NS(C)(=O)=O)C2)cc1-c1ncc(F)cn1 [Example 56, (1R,3S)-1-(3-(5-Fluoropyrimidin-2-yl)-4-methoxybenzyl)-N-methoxy-N-methyl-3-(methylsulfonamido)cyclopentane-1-carboxamide]	51%
CON(C)C(=O)[C@@]1(Cc2ccc(F)c(-c3ncc(F)cn3)c2)CC[C@H](NS(=O)(=O)C2COC2)C1 [Example 54, (1R,3S)-1-(4-Fluoro-3-(5-fluoropyrimidin-2-yl)benzyl)-N-methoxy-N-methyl-3-(oxetane-3-sulfonamido)cyclopentane-1-carboxamide]	90%
CON(C)C(=O)[C@@]1(Cc2cc(-c3ncc(F)cn3)ccc2F)C[C@H](F)[C@H](NS(C)(=O)=O)C1 (relative stereo) [Example 37, (1R*,3S*,4R*)-3-Fluoro-1-(2-fluoro-5-(5-fluoropyrimidin-2-yl)benzyl)-N-methoxy-N-methyl-4-(methylsulfonamido)cyclopentane-1-carboxamide]	90%
CON(C)C(=O)[C@]1(Cc2cccc(-c3ncc(F)cn3)c2)C[C@@H](NS(C)(=O)=O)C(F)(F)C1 [Example 66, (1R,4R)-3,3-Difluoro-1-(3-(5-fluoropyrimidin-2-yl)benzyl)-N-methoxy-N-methyl-4-(methylsulfonamido)cyclopentane-1-carboxamide]	95%
CCS(=O)(=O)N[C@H]1CC[C@](Cc2ccc(F)c(-c3ncc(F)cn3)c2)(C(=O)N(C)OC)C1 [Example 52, (1R,3S)-3-(Ethylsulfonamido)-1-(4-fluoro-3-(5-fluoropyrimidin-2-yl)benzyl)-N-methoxy-N-methylcyclopentane-1-carboxamide]	99%
CNS(=O)(=O)N[C@H]1CC[C@](Cc2cccc(-c3ccccc3)c2)(C(=O)N(C)OC)C1 (relative stereo) [Example 6, (1R*,3S*)-1-([1,1′-Biphenyl]-3-ylmethyl)-N-methoxy-N-methyl-3-((N-methylsulfamoyl)amino)cyclopentane-1-carboxamide]	92%
